Test results taken from patent US20030104393A1, “Blood assessment of injury” (priority 2000, published 2003).

Tested on: blood cells
Experiment: Genes induced in blood 24 hours following kainate induced seizures (Affymetrix microarray)
Format: in vivo, rat
Settings: for Average fold induction / Minimum fold induction: rat blood 24 h after kainate induced seizures vs untouched controls
Experimental: Status epilepticus is produced by intraperitoneally injecting a glutamate analogue/excitotoxin, kainic acid (10 mg/kg i.p.). Animals with kainate-induced seizures are observed following drug administration to ensure that they continue to have complex seizures over a 30 minute period.
All animals are allowed to survive for 24 hours following each treatment. At that time they are deeply anesthetized with ketamine (100 mg/kg) and xylazine (20 mg/kg) given intraperitoneally. Once anesthetized, the chest is opened and a direct cardiac puncture performed with a syringe and 10 cc of blood is aspirated. Immediately following removal of the blood, the animal is decapitated while deeply anesthetized and the brain removed.
One day after hypoxia, status epilepticus, hypoglycemia, ischemic stroke, and hemorrhagic stroke are produced in adult rats, RNA or protein is isolated from the blood cells and from the brains of the animals described in Example 1. The pattern of genes or proteins expressed in the blood cells following each of these types of injury—hypoxia, status epilepticus, hypoglycemia, ischemic stroke, and hemorrhagic stroke is captured on a commercially available microarray (Affymetrix chip). The pattern of gene or protein expression is defined using an expression method, which then forms a genomic or proteomic organ injury database, which is used in assessing injury.
For the tables of genes induced in the blood, the genome expression of blood in the hypoxic animals (3 animals) was compared to the genome expression of blood in untouched control animals (3 animals). The genome expression of blood in the animals with status epilepticus (3 animals) was compared to the genome expression of blood in the untouched control animals (3 animals). The genome expression of blood in the animals with stroke (3 animals) was compared to the genome expression of blood in the sham operated control animals (3 animals). In each case the accession number of the gene and the fold change in gene expression is given—with a maximum estimate and a minimum estimate.
Table 2 sets forth genes induced in the blood of rats 24 hours following kainate induced seizures (n=3 rats) as compared with genes expressed in the blood of untouched control rats (n=3 rats). The accession number of the gene is given, the name of the gene is given where known, the average fold induction is given, as well as the minimum fold induction is given for each gene. A number of the genes are ESTs that have not yet been subjected to a BLAST search. This list was shortened to show only those genes induced at least 2.8 fold. Over 100 genes were induced following kainate on arrays that contained over 8000 genes.

[1] = gene AF027571_s_at phospholipase C-beta 4 isoform (PLC-b4)
[2] = gene AF091563_i_at isolate QIL-LD1 olfactory receptor
[3] = gene AF102552_s_at ankyrin G isoform
[4] = gene D84485_at PMSG-induced ovarian mRNA
[5] = gene L42855_at RNA polymerase II transcription factor SIII p18 subunit
[6] = gene L81136cds_f_at Rps2r1 preliminary DNA
[7] = gene M96159_at adenylyl cyclase type V
[8] = gene S54212_at ciliary neurotrophic factor receptor alpha
[9] = gene U66566_at receptor type protein tyrosine phophatase psi
[10] = gene X06827_at porphobilinogen deaminase
[11] = gene Z28351exon_s_at 25-hydroxyvitamin D3 24-hydroxylase

Compound: C=C(C)[C@H]1CN[C@H](C(=O)O)[C@H]1CC(=O)O [kainate, kainic acid]
- Average fold induction [1]: 4.15 fold
- Minimum fold induction [1]: 2.5 fold
- Average fold induction (gene AF045464_s_at): 6.5 fold
- Minimum fold induction (gene AF045464_s_at): 2.5 fold
- Average fold induction (gene AF079162_at patched (ptc)): 5.4 fold
- Minimum fold induction (gene AF079162_at patched (ptc)): 3.2 fold
- Average fold induction [2]: 3.4 fold
- Minimum fold induction [2]: 2.4 fold
- Average fold induction [3]: 4.6 fold
- Minimum fold induction [3]: 2.4 fold
- Average fold induction [4]: 11.4 fold
- Minimum fold induction [4]: 3.1 fold
- Average fold induction (gene D89863_g_at (M-ras) M-Ras): 5.6 fold
- Minimum fold induction (gene D89863_g_at (M-ras) M-Ras): 2.3 fold
- Average fold induction [5]: 4.32 fold
- Minimum fold induction [5]: 3.4 fold
- Average fold induction [6]: 3.9 fold
- Minimum fold induction [6]: 2.7 fold
- Average fold induction (gene L81138exon Rps2r gene): 5.5 fold
- Minimum fold induction (gene L81138exon Rps2r gene): 2.3 fold
- Average fold induction (gene M91234_f_at VL30 element): 4.4 fold
- Minimum fold induction (gene M91234_f_at VL30 element): 2.5 fold
- Average fold induction (gene M91235_f_at VL30 element): 3.9 fold
- Minimum fold induction (gene M91235_f_at VL30 element): 3 fold
- Average fold induction [7]: 10 fold
- Minimum fold induction [7]: 2.9 fold
- Average fold induction (gene Rc_AA799614_at): 4.7 fold
- Minimum fold induction (gene Rc_AA799614_at): 2.5 fold
- Average fold induction (gene Rc_AA852046_s_at): 4.3 fold
- Minimum fold induction (gene Rc_AA852046_s_at): 2.5 fold
- Average fold induction (gene Rc_AA891828_at): 4 fold
- Minimum fold induction (gene Rc_AA891828_at): 2.6 fold
- Average fold induction (gene Rc_AA894273_at): 5.2 fold
- Minimum fold induction (gene Rc_AA894273_at): 2.8 fold
- Average fold induction (gene Rc_AA925529_at): 4 fold
- Minimum fold induction (gene Rc_AA925529_at): 3 fold
- Average fold induction (gene Rc_AA955182_g_at): 9 fold
- Minimum fold induction (gene Rc_AA955182_g_at): 2.3 fold
- Average fold induction (gene Rc_AI104924_f_at): 4.1 fold
- Minimum fold induction (gene Rc_AI104924_f_at): 3.3 fold
- Average fold induction [8]: 2.8 fold
- Minimum fold induction [8]: 2.6 fold
- Average fold induction [9]: 5.5 fold
- Minimum fold induction [9]: 4.3 fold
- Average fold induction (gene U73030_at): 4.1 fold
- Minimum fold induction (gene U73030_at): 2.4 fold
- Average fold induction [10]: 3.6 fold
- Minimum fold induction [10]: 3 fold
- Average fold induction (gene X60675_at interleukin 10): 3.6 fold
- Minimum fold induction (gene X60675_at interleukin 10): 2.3 fold
- Average fold induction (gene X76697_at B7 antigen): 5.7 fold
- Minimum fold induction (gene X76697_at B7 antigen): 2.5 fold
- Average fold induction [11]: 3.5 fold
- Minimum fold induction [11]: 2.3 fold
- Average fold induction (gene rc_AI102562_at): 3 fold
- Minimum fold induction (gene rc_AI102562_at): 2.4 fold
- Number of genes induced following kainate (rat blood, arrays that contained over 8000 genes): Over 100 genes
